Data from article PMC10610188, “Structure–Activity Relationship Studies of Chalcones and Diarylpentanoids with Antitumor Activity: Potency and Selectivity Optimization” (Pharmaceuticals, 2023).
Where two headings read alike, the source gives them in different places.

What was measured:
[1] = tested on: HCT116 p53^+/+ cells; conditions: SRB assay, cited from earlier work
[2] = tested on: HCT116 p53^−/− cells; conditions: SRB assay; ref Pereira et al. [23]; cited from earlier work
[3] = tested on: HFF-1 cells; assay: SRB growth inhibition assay in normal fibroblasts HFF-1; type: cell-based, human; conditions: for SI2: Selective index 2: GI50 of HFF-1/GI50 of HCT116 p53^+/+; for GI50: Homo sapiens, HFF-1, SRB assay, 48 h of treatment
Method: (§1) To study the in vitro antitumor potential of chalcone CM-M345 (1) and diarylpentanoid BP-C4 (2) analogues, the sulforhodamine B (SRB) assay was used to evaluate the antiproliferative activity in human colorectal HCT116 cancer cells. To assess their cytotoxicity toward normal cells, the antiproliferative effect of these compounds was also tested in human fibroblasts HFF-1 cells. In order to confirm if inhibition of proliferation was associated with p53 activation in HCT116 p53^+/+ cells, all compounds were also tested in HCT116 cells in which p53 was knocked out (HCT116 p53^−/−) and the selective index was calculated and compared to the compounds CM-M345 (1) and BP-C4 (2), for which p53-dependent antiproliferative activity was previously reported by our research group (Table 1).
(§2) The colorectal adenocarcinoma HCT116 cells (HCT116 p53^+/+) and its p53-null isogenic derivative (HCT116 p53^−/−) were given by Prof. Vogelstein (The Johns Hopkins Kimmel Cancer Center, Baltimore, USA); the normal human fibroblasts HFF-1 cell lines were from ATCC (Rockville, MD, USA). Human cells were cultured in RPMI-1640 with UltraGlutamine (Lonza, VWR, Portugal) with 10% FBS (Gibco, Alfagene, Portugal) at 37 °C with 5% CO2. The SH-SY5Y cells were cultured in DMEM/F-12 (Lonza) and 10% FBS and 2mM L-glutamine (Gibco). The cells were incubated at 37 °C in a humidified atmosphere of 5% CO2. Mycoplasma was routinely checked using the MycoAlert™ PLUS kit (Lonza). […]

[4] = target: T1, p53–MDM2 interaction (Homo sapiens, UniProt Q00987); assay: Yeast-based p53-MDM2 interaction screening assay; type: cell-based; conditions: 10 μM
T1 construct: expressed in transfected cells; host or cells: Saccharomyces cerevisiae strain CG379
T1 sequence (Q00987 whole entry): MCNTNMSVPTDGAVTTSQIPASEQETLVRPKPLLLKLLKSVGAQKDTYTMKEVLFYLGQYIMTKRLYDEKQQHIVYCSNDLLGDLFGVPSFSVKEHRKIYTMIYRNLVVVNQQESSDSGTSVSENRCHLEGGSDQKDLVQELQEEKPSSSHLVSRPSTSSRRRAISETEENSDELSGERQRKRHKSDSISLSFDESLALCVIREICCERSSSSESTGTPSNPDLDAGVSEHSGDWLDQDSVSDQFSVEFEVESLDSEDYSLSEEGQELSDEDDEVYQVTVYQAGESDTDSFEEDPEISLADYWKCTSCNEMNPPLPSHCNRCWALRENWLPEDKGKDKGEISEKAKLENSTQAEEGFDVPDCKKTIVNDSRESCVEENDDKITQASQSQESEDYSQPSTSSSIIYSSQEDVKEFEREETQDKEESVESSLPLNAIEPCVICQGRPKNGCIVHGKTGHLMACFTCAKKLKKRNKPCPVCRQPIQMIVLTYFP
Excerpt: The possible activation of p53 by inhibiting its interaction with MDM2 was investigated using the yeast-based screening assay previously developed by our group. In this assay, compounds that inhibit p53–MDM2 interaction will re-establish the p53-induced growth-inhibitory effect, which was abolished by MDM2 [43].
In the yeast targeted screening assay, Saccharomyces cerevisiae (strain CG379) expressing human wt p53 alone and combined with human MDM2 were used as described. For the expression of human proteins (routinely grown in minimal selective medium), the cells were diluted to 0.05 OD600 in the selective induction medium with 2% (w/w) galactose, 1% (w/w) raffinose, 0.7% (w/w) yeast nitrogen base without amino acids from Difco (Quilaban, Sintra, Portugal), and all the amino acids necessary for yeast growth ([…]) except leucine and tryptophan. The yeast cells were incubated at 30 °C under continuous orbital shaking (200 rpm) with […] compounds or 0.1% DMSO only for over 42 h. Yeast growth was analyzed by counting the number of colony-forming units (CFUs) after 2 days of incubation at 30 °C on Sabouraud Dextrose Agar from Liofilchem (Frilabo, Porto, Portugal).

[5] = tested on: HCT116 p53^−/− cells; assay: SRB growth inhibition assay in HCT116 p53-/- cells; type: cell-based, human; conditions: for SI1: Selective index 1: GI50 of HCT116 p53^−/−/GI50 of HCT116 p53^+/+; for GI50: Homo sapiens, HCT-116, SRB assay, 48 h of treatment
Method: as §1, §2

[6] = tested on: HCT116 p53^+/+ cells; assay: SRB growth inhibition assay in HCT116 p53+/+ cells; type: cell-based, human; conditions: for GI50: SRB assay, 48 h of treatment
Method: as §1, §2

| SMILES | GI50 ([1]; ref Moreira et al. [21]) [µM] | GI50 [2] [µM] | GI50 ([1]; ref Pereira et al. [23]) [µM] | SI2: Selective index 2 [3] | GI50 [3] [µM] | effect on growth of control yeast (vectors) or yeast expressing p53 only [4] | inhibition of the p53–MDM2 interaction in yeast co-expressing p53 and MDM2 [4] | SI1: Selective index 1 [5] | selectivity for p53 compared to BP-C4 (2) ([5]; HCT116 p53^+/+ over p53^−/−) | GI50 [5] [µM] | melting point [°C] | antiproliferative activity compared to BP-C4 (2) ([6]; HCT116 p53^+/+) | GI50 ([6]; Homo sapiens, HCT-116, 48 h) [µM] | GI50 [6] [µM] |
| --- | --- | --- | --- | --- | --- | --- | --- | --- | --- | --- | --- | --- | --- | --- |
| COc1cc(/C=C2\COC/C(=C\c3cc(OC)c(OC)c(OC)c3)C2=O)cc(OC)c1OC [BP-M345 (1), reference compound] | 0.17 |  |  |  |  |  |  |  |  |  |  |  |  |  |
| CCCc1c(OC)ccc(C(=O)/C=C/c2cc(OC)c(OC)c(OC)c2)c1O [CM-M345 (1), (E)-1-(2-hydroxy-4-methoxy-3-propylphenyl)-3-(3,4,5-trimethoxyphenyl)prop-2-en-1-one] |  | 3.4 ± 0.1 | 2.6 ± 0.2 | 2.96 | 7.7 ± 0.8 |  |  |  |  |  |  |  |  |  |
| O=C1/C(=C/c2ccc(Cl)cc2)CSc2ccccc21 [Compound 16] |  |  |  | 5.25 | 3.62 ± 0.99 | without interfering with the growth | behaved as a potential inhibitor of the p53-MDM2 interaction | 11.5 | seven-fold increased | 7.95 ± 0.85 | 139 to 141 | nine-fold higher | 0.69 ± 0.07 |  |
| O=C1/C(=C/c2ccc(Cl)cc2)CSC/C1=C\c1ccc(Cl)cc1 [Compound 20] |  |  |  | 2.01 | 2.27 ± 0.09 |  |  | 0.93 |  | 1.05 ± 0.05 | 126 to 128 |  | 1.13 ± 0.17 |  |
| COc1cc(/C=C2\CSC/C(=C\c3cc(OC)c(OC)c(OC)c3)C2=O)cc(OC)c1OC [Compound 24] |  |  |  | 0.74 | 0.23 ± 0.02 |  |  | 1.84 |  | 0.57 ± 0.009 | 219 to 222 |  | 0.31 ± 0.03 |  |
| CCCc1c(OC)ccc(C(=O)/C=C/c2cc(OC)c(OC)c(OC)c2)c1OCC=C(C)C [Compound 26, (E)-1-(4-methoxy-2-((3-methylbut-2-en-1-yl)oxy)-3-propylphenyl)-3-(3,4,5-trimethoxyphenyl)prop-2-en-1-one] |  |  |  | 1.22 | 7.3 ± 2 |  |  | 0.77 |  | 4.6 ± 1.7 | 100 to 103 |  | 6 ± 0.93 |  |
| CCCc1c(OC)ccc2c(=O)cc(-c3cc(OC)c(OC)c(OC)c3)oc12 [Compound 27, 7-methoxy-8-propyl-2-(3,4,5-trimethoxyphenyl)-4H-chromen-4-one] |  |  |  |  | > 30 |  |  |  |  | > 30 | 153 to 155 |  | > 30 |  |
| CCCc1c(OC)ccc(C(O)/C=C/c2cc(OC)c(OC)c(OC)c2)c1O (centres unmarked) [Compound 28, (E)-6-(1-hydroxy-3-(3,4,5-trimethoxyphenyl)allyl)-3-methoxy-2-propylphenol] |  |  |  | 1.13 | 17 ± 4.4 |  |  | 0.80 |  | 12 ± 5 | 219 to 222 |  | 15 ± 1.73 |  |
| OC1/C(=C/c2ccc(Cl)cc2)COC/C1=C\c1ccc(Cl)cc1 (centres unmarked) [Compound 30, 3,5-bis((E)-4-chlorobenzylidene)tetrahydro-2H-pyran-4-ol] |  |  |  |  | > 30 |  |  |  |  | > 30 | 219 to 222 |  | > 30 |  |
| O=C1C(Cc2ccc(Cl)cc2)COCC1Cc1ccc(Cl)cc1 (centres unmarked) [Compound 31, 3,5-bis(4-chlorobenzyl)tetrahydro-4H-pyran-4-one] |  |  |  |  | > 30 |  |  |  |  | > 30 | 145 to 146 |  | > 30 |  |
| CCCc1c(OC)ccc(C(=O)/C=C/c2ccc(Cl)cc2)c1O [Compound 32] |  |  |  | 1.17 | 11.1 ± 0.12 |  |  | 1 |  | 9.5 ± 0.1 | 109 to 112 |  | 9.5 ± 0.5 |  |
| CCCc1c(OC)ccc(C(=O)/C=C/c2ccc(F)cc2)c1O [Compound 33, (E)-3-(4-fluorophenyl)-1-(2-hydroxy-4-methoxy-3-propylphenyl)prop-2-en-1-one] |  |  |  | 0.89 | 8.23 ± 0.08 |  |  | 0.77 |  | 7.2 ± 0.32 | 115 to 117 |  | 9.25 ± 0.75 |  |
| CCCc1c(OC)ccc(C(=O)/C=C/c2ccc(Br)cc2)c1O [Compound 34, (E)-3-(4-bromophenyl)-1-(2-hydroxy-4-methoxy-3-propylphenyl)prop-2-en-1-one] |  |  |  | 0.80 | 14.9 ± 0.232 |  |  | 0.62 |  | 11.5 ± 0.145 | 115 to 116 |  | 18.5 ± 0.35 |  |
| CCCc1c(OC)ccc(C(=O)/C=C/c2ccc(N3CCOCC3)cc2)c1O [Compound 36, (E)-1-(2-hydroxy-4-methoxy-3-propylphenyl)-3-(4-morpholinophenyl)prop-2-en-1-one] |  |  |  | 3.08 | 15.7 ± 2.8 |  | seems not to be related to the inhibition of p53–MDM2 interaction |  |  | 14.3 ± 1.1 | 129 to 131 |  | 5.1 to 10.7 | 5.1 ± 0.32 |
| CC(C)=CCOc1ccc(/C=C2\COC/C(=C\c3ccc(OCC=C(C)C)cc3)C2=O)cc1 [Compound 40, 3,5-bis((E)-4-((3-methylbut-2-en-1-yl)oxy)benzylidene)tetrahydro-4H-pyran-4-one] |  |  |  | 1.48 | 14.1 ± 0.08 |  |  | 0.61 |  | 5.8 ± 0.21 | 145 to 147 |  | 9.51 | 9.53 ± 0.25 |
